SMILES strings stand for the structures. Structures can show the parent of a compound that is named as a salt.

This test has as its system human CCRF-CEM cells. As to the kind of experiment: cells. The following applies: 72 h, read-out: % growth (72 hrs exp.). Here is the method: Inhibition of the growth of human CCRF-CEM cells
Human leukemia cells (CCRF-CEM) were grown during 72 hours in the presence of increasing concentration of (6R)-N^5 -methyl-THF.[…].

On to `CN1c2c(nc(N)[nH]c2=O)NC[C@H]1CNc1ccc(C(=O)N[C@@H](CCC(=O)O)C(=O)O)cc1` [(6R)-N^5 -Methyl-THF.Ca^2+, (6R)-N^5 -methyl-THF-calcium salt], for which the activity at 1 µM amounted to 95%, the activity at 10 µM came out at 99%, the activity at 30 µM amounted to 10% and the activity at 100 µM worked out at 9.3%. In addition, the activity at 250 µM was 8.2%.

The values above are taken from patent US5194611A, “Separation technique for a mixture of (6RS)-diastereoisomers of an ammonium salt of N^5 -methyl-5,6,7,8-tetrahydrofolic acid into single (6R) and (6S)-diastereoisomers” (Sapec S.A. fine chemicals, priority 1990, dated 1993).
